Assay results: the NIST ThermoML archive (doi:10.1016/j.jct.2018.10.006)
Numbers after ± are expanded uncertainties.

Settings: for molar entropy / mass density: 101.33 kPa; for mass density: X-ray diffraction

O=P([O-])([O-])[O-].[Cs+].[Ni+2] [cesium nickel monophosphate]
Settings	mass density [kg/m3]	molar entropy [J/K/mol]
5 K, Crystal 2, Small (less than 1 g) adiabatic calorimetry	–	0.4664 ± 0.034
6 K, Crystal 2, Small (less than 1 g) adiabatic calorimetry	–	0.6618 ± 0.041
7 K, Crystal 2, Small (less than 1 g) adiabatic calorimetry	–	0.8896 ± 0.05
8 K, Crystal 2, Small (less than 1 g) adiabatic calorimetry	–	1.147 ± 0.058
9 K, Crystal 2, Small (less than 1 g) adiabatic calorimetry	–	1.438 ± 0.067
10 K, Crystal 2, Small (less than 1 g) adiabatic calorimetry	–	1.763 ± 0.083
15 K, Crystal 2, Small (less than 1 g) adiabatic calorimetry	–	3.941 ± 0.16
20 K, Crystal 2, Small (less than 1 g) adiabatic calorimetry	–	6.944 ± 0.14
25 K, Crystal 2, Small (less than 1 g) adiabatic calorimetry	–	10.43 ± 0.18
30 K, Crystal 2, Small (less than 1 g) adiabatic calorimetry	–	14.35 ± 0.25
35 K, Crystal 2, Small (less than 1 g) adiabatic calorimetry	–	18.52 ± 0.3
40 K, Crystal 2, Small (less than 1 g) adiabatic calorimetry	–	22.78 ± 0.36
45 K, Crystal 2, Small (less than 1 g) adiabatic calorimetry	–	27.1 ± 0.35
50 K, Crystal 2, Small (less than 1 g) adiabatic calorimetry	–	31.46 ± 0.39
60 K, Crystal 2, Small (less than 1 g) adiabatic calorimetry	–	40.28 ± 0.48
70 K, Crystal 2, Small (less than 1 g) adiabatic calorimetry	–	49.01 ± 0.57
80 K, Crystal 2, Small (less than 1 g) adiabatic calorimetry	–	57.49 ± 0.67
90 K, Crystal 2, Small (less than 1 g) adiabatic calorimetry	–	65.63 ± 0.76
100 K, Crystal 2, Small (less than 1 g) adiabatic calorimetry	–	73.47 ± 0.84
110 K, Crystal 2, Small (less than 1 g) adiabatic calorimetry	–	81.12 ± 0.91
120 K, Crystal 2, Small (less than 1 g) adiabatic calorimetry	–	88.55 ± 1
130 K, Crystal 2, Small (less than 1 g) adiabatic calorimetry	–	95.7 ± 1.1
140 K, Crystal 2, Small (less than 1 g) adiabatic calorimetry	–	102.6 ± 1.2
150 K, Crystal 2, Small (less than 1 g) adiabatic calorimetry	–	109.34 ± 1.2
160 K, Crystal 2, Small (less than 1 g) adiabatic calorimetry	–	115.9 ± 1.2
170 K, Crystal 2, Small (less than 1 g) adiabatic calorimetry	–	122.31 ± 1.3
180 K, Crystal 2, Small (less than 1 g) adiabatic calorimetry	–	128.54 ± 1.4
190 K, Crystal 2, Small (less than 1 g) adiabatic calorimetry	–	134.69 ± 1.4
200 K, Crystal 2, Small (less than 1 g) adiabatic calorimetry	–	140.68 ± 1.5
210 K, Crystal 2, Small (less than 1 g) adiabatic calorimetry	–	146.58 ± 1.6
220 K, Crystal 2, Small (less than 1 g) adiabatic calorimetry	–	152.32 ± 1.6
230 K, Crystal 2, Small (less than 1 g) adiabatic calorimetry	–	157.89 ± 1.7
240 K, Crystal 2, Small (less than 1 g) adiabatic calorimetry	–	163.38 ± 1.7
250 K, Crystal 2, Small (less than 1 g) adiabatic calorimetry	–	168.7 ± 1.7
260 K, Crystal 2, Small (less than 1 g) adiabatic calorimetry	–	173.94 ± 1.8
270 K, Crystal 2, Small (less than 1 g) adiabatic calorimetry	–	179.09 ± 1.9
273.15 K, Crystal 2, Small (less than 1 g) adiabatic calorimetry	–	180.67 ± 1.9
280 K, Crystal 2, Small (less than 1 g) adiabatic calorimetry	–	184.17 ± 1.9
290 K, Crystal 2, Small (less than 1 g) adiabatic calorimetry	–	189.15 ± 2
298 K, Crystal 2	4218.3 ± 10	–
298.15 K, Crystal 2, Small (less than 1 g) adiabatic calorimetry	–	193.23 ± 2
300 K, Crystal 2, Small (less than 1 g) adiabatic calorimetry	–	194.14 ± 2
310 K, Crystal 2, Small (less than 1 g) adiabatic calorimetry	–	199.13 ± 2.1
320 K, Crystal 2, Small (less than 1 g) adiabatic calorimetry	–	204.04 ± 2.2
330 K, Crystal 2, Small (less than 1 g) adiabatic calorimetry	–	208.86 ± 2.2
340 K, Crystal 2, Small (less than 1 g) adiabatic calorimetry	–	213.68 ± 9.6
350 K, Crystal 2, Small (less than 1 g) adiabatic calorimetry	–	218.42 ± 9.9
360 K, Crystal 2, Small (less than 1 g) adiabatic calorimetry	–	223.08 ± 10
370 K, Crystal 2, Small (less than 1 g) adiabatic calorimetry	–	227.82 ± 10
380 K, Crystal 2, Small (less than 1 g) adiabatic calorimetry	–	232.47 ± 11
382.8 K, Crystal 1, DSC	–	237.46 ± 17
382.8 K, Crystal 2, Small (less than 1 g) adiabatic calorimetry	–	233.72 ± 11
390 K, Crystal 1, DSC	–	240.7 ± 17
400 K, Crystal 1, DSC	–	245.19 ± 17
410 K, Crystal 1, DSC	–	249.52 ± 17
420 K, Crystal 1, DSC	–	253.76 ± 18
430 K, Crystal 1, DSC	–	257.83 ± 18
440 K, Crystal 1, DSC	–	261.82 ± 18
450 K, Crystal 1, DSC	–	265.73 ± 18
460 K, Crystal 1, DSC	–	269.64 ± 19
470 K, Crystal 1, DSC	–	273.38 ± 19
473 K, Crystal 1	4124 ± 22	–
480 K, Crystal 1, DSC	–	277.04 ± 19
490 K, Crystal 1, DSC	–	280.7 ± 20
500 K, Crystal 1, DSC	–	284.27 ± 20
510 K, Crystal 1, DSC	–	287.76 ± 20
520 K, Crystal 1, DSC	–	291.17 ± 20
530 K, Crystal 1, DSC	–	294.58 ± 20
540 K, Crystal 1, DSC	–	297.91 ± 21
550 K, Crystal 1, DSC	–	301.23 ± 21
560 K, Crystal 1, DSC	–	304.48 ± 21
570 K, Crystal 1, DSC	–	307.64 ± 21
573 K, Crystal 1	4090 ± 80	–
580 K, Crystal 1, DSC	–	310.79 ± 22
590 K, Crystal 1, DSC	–	313.87 ± 22
600 K, Crystal 1, DSC	–	316.86 ± 22
610 K, Crystal 1, DSC	–	319.86 ± 22
620 K, Crystal 1, DSC	–	322.85 ± 22
630 K, Crystal 1, DSC	–	325.76 ± 23
640 K, Crystal 1, DSC	–	328.67 ± 23
650 K, Crystal 1, DSC	–	331.58 ± 23
673 K, Crystal 1	4080 ± 80	–
773 K, Crystal 1	4040 ± 18	–
873 K, Crystal 1	4030 ± 160	–
973 K, Crystal 1	4000 ± 80	–
1073 K, Crystal 1	3980 ± 60	–

Settings	Triple point temperature [K]
Crystal 2, DSC	382.8 ± 0.8
